Data from patent US20160361340A1, “TREATMENT OF CARDIAC DISEASES WITH MODULATORS OF THE HIPPO PATHWAY” (INSTITUT PASTEUR, priority 2014, published 2016).

Assays:
Type in all cases: cell-based, rat
Settings in all cases: primary cultures of cardiomyocytes
Amotl1 = assay: RT-qPCR control of RNA interference efficiency, Amotl1
Experimental: (§1) cDNAs were reverse transcribed from RNAs extracted in TRIzol from cell cultures and isolated hearts using the Quanti-Tect kit (Qiagen) and Superscript II Reverse Transcriptase (Life Technologies) respectively. Quantitative PCR was carried out on a StepOne System (Life Technologies) using Fast Start SYBR Green Master (Roche). Quantification of gene expression was calculated as R=2^ΔCt(control-target), with Gapdh used as a control. Primers were designed using the NCBI Primer-BLAST software. Primer sequences are listed in Supplementary Table 1.
(§2) Primary cultures of newborn rat cardiomyocytes, performed as previously described^34, were transfected with siRNA at 10 pM using Lipofectamine RNAiMax with silencer-siRNA at 24 h and analysed at 72 h, or 96 h (FIG. 3c). Control (Ambion 4390843), Fat4 (siRNA-1: Ambion s172170, siRNA-2: […], siRNA-3 […]), Amotl1 (siRNA-1: […], siRNA-2: […], siRNA-3: […]), Yap1 (siRNA-1: Ambion s170200, siRNA-2: […], siRNA-3: […]) siRNA were used. Efficiency of the interference was controlled by RT-qPCR. In the figures, Fat4 siRNA is Fat4-siRNA-1, Yap1 siRNA is a pool of siRNA-1 to 3 and Amotl1 siRNA is a pool of siRNA-1 to 3.

Fat4 = assay: RT-qPCR control of RNA interference efficiency, Fat4
Experimental: as §1, §2

Yap1 = assay: RT-qPCR control of RNA interference efficiency, Yap1
Experimental: as §1, §2

**Q.** For “Amotl1 siRNA-2: siRNA against rat Amotl1, GAGUAUCUCAGAGGCCUAUTT (chemistry not given here)”, which “down-regulation of Amotl1 relative to Gapdh transcripts” value (Amotl1) is on record?
**A.** Efficient down-regulation

**Q.** “Amotl1 siRNA-3: siRNA against rat Amotl1, CAUCACAUGUCCCAGAAUATT (chemistry not given here)” was tested. Which “down-regulation of Amotl1 relative to Gapdh transcripts” value (Amotl1) did it give?
**A.** Efficient down-regulation

**Q.** “Amotl siRNA-1: siRNA against rat Amotl1, AUCUCUACCAUUUGUUGGGTT (chemistry not given here)” was tested. Which “down-regulation of Amotl1 relative to Gapdh transcripts” value (Amotl1) did it give?
**A.** Efficient down-regulation

**Q.** For “Fat4 siRNA-2: siRNA against rat Fat4, CCUGUACCCUGAGUAUUGATT (chemistry not given here)”, which “down-regulation of Fat4 relative to Gapdh transcripts” value (Fat4) is on record?
**A.** Efficient down-regulation

**Q.** For “Fat4 siRNA-3: siRNA against rat Fat4, CCGUCCUUGUGUUUAACGUTT (chemistry not given here)”, which “down-regulation of Fat4 relative to Gapdh transcripts” value (Fat4) is on record?
**A.** Efficient down-regulation

**Q.** Which “down-regulation of Yap1 relative to Gapdh transcripts” value (Yap1) does the source give for “Yap1 siRNA-2: siRNA against rat Yap1, GUCAGAGAUACUUCUUAAATT (chemistry not given here)” here?
**A.** Efficient down-regulation

**Q.** “Yap1 siRNA-3: siRNA against rat Yap1, GGAGAAGUUUACUACAUAATT (chemistry not given here)” was tested. Which “down-regulation of Yap1 relative to Gapdh transcripts” value (Yap1) did it give?
**A.** Efficient down-regulation
